Assay results as given in paper PMC12588083, “Validated antimalarial drug target discovery using genome-scale metabolic modeling” (Antimicrobial Agents and Chemotherapy, 2025).
“Also recorded” adds a separate entry of the source.

Tests used:
[1] = target: recombinant PfUCK (P. falciparum UMP-CMP kinase, PfUCK-Δ23) (Plasmodium falciparum, UniProt Q8I231); test: Inhibition constant (Ki) determination, coupled PK/LDH NADH assay, recombinant PfUCK; type: biochemical; details: for Ki—PfUCK: Table 4, benzoylacetonitrile derivatives, 1 mM CMP, competitive equation
Protocol: (§1) The hydrophobic core at the protein’s N-terminus may cause poor expression and low solubility in E. coli. Therefore, a truncated gene was created where the ORF began at amino acid residues 24–371, encoding a 348 amino acid protein. […] Briefly, protein expression was induced with isopropyl-D-thiogalactoside, incubated at 16°C with shaking at 200 RPM for 20 hours, and the cell pellet resuspended in binding buffer (50 mM Tris [pH 7.6], 300 mM NaCl, 20 mM imidazole, 5% glycerol, and 0.075% β-mercaptoethanol), with cell disruption using an Avestin C3 Cell Disrupter. Cell debris was removed, and the UCK was purified by Ni-NTA affinity purification. The protein was eluted from the column using a linear gradient of imidazole ([…]) in elution buffer (50 mM Tris [pH 7.6], 300 mM NaCl, 5% glycerol, and 0.075% β-mercaptoethanol). […] The concentrated protein was then stored at −70°C in a storage buffer (25 mM Tris-HCl, 50 mM KCl, and 20% glycerol; pH 7.0).
(§2) The final concentration of dimethyl sulfoxide (Merck, Catalog number 472301) in the assay reaction was maintained at 1%.

P. falciparum 3D7 = test: Antiplasmodial activity (IC50), SYBR Green fluorescence, 48 hours; type: cell-based, Plasmodium falciparum
Protocol: P. falciparum 3D7 parasites underwent two synchronization cycles with D-sorbitol initiating the inhibitor testing. Parasitemia and hematocrit were adjusted to 0.5% and 3%, respectively. Synchronized ring parasites were cultured in 96-well plates in complete RPMI medium with varying inhibitor concentrations. Inhibitor stock solutions, mostly at 100 mM, were prepared in DMSO. […] Triplicate wells were prepared for each compound. Negative controls included wells with uninfected red cells (3% hematocrit) in complete RPMI medium.
Culture plates were incubated in a chamber with controlled gas conditions at 37°C. After 48 hours, parasites were quantified using a fluorescence-based assay with SYBR Green dye as previously described ([51]). Lysis buffer containing SYBR Green was added to each well, and plates were incubated at room temperature for 45 minutes and protected from the light. Fluorescence was measured using a microplate reader (POLARstar OPTIMA, BMG Labtech) with excitation at 485 nm and detection at 520 nm. Background fluorescence of uninfected red cells was subtracted, and dose-response curves were plotted against inhibitor concentration. IC50 values were determined using nonlinear regression curve fitting in GraphPad Prism software.

[2] = test system: recombinant PfUCK (P. falciparum UMP-CMP kinase, PfUCK-Δ23); test: Inhibition constant (Ki) determination, coupled PK/LDH NADH assay, recombinant PfUCK; type: biochemical, Plasmodium falciparum; details: hUCK versus PfUCK
Protocol: as §1, §2

[3] = target: T1, recombinant human UMP-CMP kinase (hUCK) (Homo sapiens, UniProt P30085); test: Inhibition constant (Ki) determination, coupled PK/LDH NADH assay, hUCK; type: biochemical; details: for Ki—hUCK: 1 mM CMP, competitive equation
T1 construct: constructed by amplifying its ORF from an available commercial plasmid; His tag (vector-encoded by pET28a; the text names only the HisPur Ni-NTA and His GraviTrap TALON columns) (N); host or cells: E. coli BL21 (DE3) with extra argU, ileY and leuW tRNA genes
T1 sequence (P30085 1-228 isoform P30085-3): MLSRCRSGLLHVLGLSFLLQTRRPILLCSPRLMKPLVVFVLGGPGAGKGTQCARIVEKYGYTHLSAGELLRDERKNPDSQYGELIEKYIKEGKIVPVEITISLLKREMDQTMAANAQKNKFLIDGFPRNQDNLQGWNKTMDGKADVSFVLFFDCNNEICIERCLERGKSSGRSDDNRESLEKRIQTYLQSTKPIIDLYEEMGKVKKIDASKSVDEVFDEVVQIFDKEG
Protocol: The protein was purified with a HisPur Ni-NTA Spin column, and elution was performed with 250 mM imidazole in elution buffer (50 mM Tris-HCl, 750 mM NaCl, and 10% glycerol; pH 7.5). The protein was further purified using a His GraviTrap TALON column (Cytiva, catalog number 29-0005-94). The buffers employed were binding buffer (50 mM potassium phosphate [KP], 100 mM NaCl, and 10% glycerol; pH 8.0), washing buffer (50 mM KP, 500 mM NaCl, 10 mM imidazole, and 10% glycerol; pH 8.0), and elution buffer (50 mM Tris-HCl, 750 mM NaCl, 250 mM imidazole, and 10% glycerol; pH 7.5). The purified protein was desalted using a PD-10 column (Sephadex G25 M; Cytiva, catalog number 17085101) stored in a storage buffer (25 mM Tris-HCl, 50 mM KCl, and 20% glycerol; pH 7.0). Purity of the recombinant protein was verified via SDS-PAGE (Mini-Protein TGX Precast Gels; Bio-Rad), and its concentration was determined using a Bradford protein assay (Bio-Rad, catalog number 5000006).
as §2

hUCK [4] = target: T2, hUCK (Homo sapiens, UniProt P30085); details: hUCK versus PfUCK
Protocol: (§3) Enzyme activity was assessed using an indirect spectrophotometric assay that measured NADH absorbance at 340 nm coupled to pyruvate kinase/lactate dehydrogenase. The reaction mixture contained 50 mM Tris-HCl (pH 7.6), 50 mM KCl, 10 mM MgCl2, 5 mM ATP, 0.2 mM NADH, 1 mM phosphoenolpyruvate, 10 mM dithiothreitol, pyruvate kinase (10 U/mL), lactate dehydrogenase (15 U/mL), and purified UCK (OD340/min of 0.04–0.06). […] The decrease in absorbance was monitored using a UV/visible spectrophotometer (Ultrospec 2100 Pro).
(§4) Then, a reaction rate was calculated from the decrease in absorbance at 340 nm (εNADH = 6.22 × 10^−3 M^−1 cm^−1) compared to the control reaction in which UCK was absent. The maximum reaction rate (Vmax) and Michaelis constant (Km) values were calculated using the Michaelis-Menten equation (v = Vmax[S] /Km+ [S]), where v is the reaction rate and [S] is the substrate concentration.

hUCK [5] = target: T2, hUCK; details: read-out: Km hUCK; phosphate acceptor; literature values ref 66; cited from earlier work
PfUCK = target: T3, PfUCK (Plasmodium falciparum, UniProt Q8I231); test: UCK characterization: Km for nucleoside monophosphate substrates, PfUCK; type: biochemical; details: UMP versus CMP
T3 sequence (Q8I231 24-371): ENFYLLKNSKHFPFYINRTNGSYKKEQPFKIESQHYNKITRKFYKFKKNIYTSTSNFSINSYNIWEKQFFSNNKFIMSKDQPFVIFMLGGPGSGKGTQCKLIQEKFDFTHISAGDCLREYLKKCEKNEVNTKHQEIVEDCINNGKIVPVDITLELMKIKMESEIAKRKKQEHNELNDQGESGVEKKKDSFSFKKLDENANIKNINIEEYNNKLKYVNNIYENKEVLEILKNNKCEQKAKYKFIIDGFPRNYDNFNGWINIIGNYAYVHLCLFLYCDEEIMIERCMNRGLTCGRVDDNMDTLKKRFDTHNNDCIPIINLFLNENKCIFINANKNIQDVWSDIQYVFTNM
Protocol: as §3, §4

[6] = substrate: O=c1ccn([C@@H]2O[C@H](COP(=O)(O)O)[C@@H](O)[C@H]2O)c(=O)[nH]1; test: as above; type: biochemical, Plasmodium falciparum; details: other: phosphate acceptor, ATP as phosphate donor, 25°C, pH 7.6
Protocol: as §3, §4

[7] = substrate: Nc1ccn([C@H]2C[C@H](O)[C@@H](COP(=O)(O)O)O2)c(=O)n1; test: as above; type: biochemical, Plasmodium falciparum; details: other: phosphate acceptor, ATP as phosphate donor, 25°C, pH 7.6
Protocol: as §3, §4

[8] = substrate: O=c1ccn([C@@H]2O[C@H](COP(=O)(O)O)[C@@H](O)[C@H]2O)c(=O)[nH]1; test: purified protein, by the assay type; details: other: phosphate acceptor, ATP as phosphate donor, 25°C, pH 7.6
[9] = Plasmodium falciparum, 3D7, 48 h, Supplementary Table 7, benzoylacetonitrile derivatives
[10] = Supplementary Table 7, benzoylacetonitrile derivatives
[11] = Plasmodium falciparum, 3D7, 48 h, Table 5
[12] = Table 4, benzoylacetonitrile derivatives
[13] = Table 3, acrylamide and chloroacetamide compounds

For N#CCC(=O)c1cc(C(F)(F)F)cc(C(F)(F)F)c1 [Compound C83], the Ki [1] was 4.66 ± 0.29 µM, the IC50 (P. falciparum 3D7; [9]) was > 310 µM and the IC50 (P. falciparum 3D7; [10]) was 317 ± 50.8 µM.

With C=CC(=O)N1CCC(C(=O)NCc2cc(=O)n3ccccc3n2)CC1 [Compound C58] the Ki [1] was 2.11 ± 0.21 µM and the IC50 (P. falciparum 3D7; [11]) was > 1000 µM.

With N#CCC(=O)c1ccccc1Cl [Compound C39] the Selectivity index ([2]; Table 4) was >275, the Ki [1] was 3.64 ± 0.59 µM and the “IC50 - P. falciparum (3D7), µM” value (P. falciparum 3D7; [10]) was “no inhibition at 1 mM”. For the same molecule, the “Ki—hUCK” value [3, 12] was “little or no inhibition of hUCK; also recorded: No inhibition at 1 mM”.

With Cc1cccc(C(=O)CC#N)c1 [Compound C66] the “Ki—PfUCK” value [1] was “No inhibition at 1 mM”, the IC50 (P. falciparum 3D7; [9]) was > 310 µM and the IC50 (P. falciparum 3D7; [10]) was 310 ± 57.9 µM.

With COc1cccc(C(=O)CC#N)c1 [Compound C65] the “Ki—PfUCK” value [1] was “no inhibition at 1 mM”.

In the case of N#CCC(=O)c1ccc(-c2ccccc2)cc1 [Compound C79], the “Ki—PfUCK” value [1] is reported as “No inhibition at 1 mM”.

With N#CCC(=O)c1cc(Cl)cc(Cl)c1 [Compound C62] the “Ki—PfUCK” value [1] was “No inhibition at 1 mM”.

In the case of O=c1ccn([C@@H]2O[C@H](COP(=O)(O)O)[C@@H](O)[C@H]2O)c(=O)[nH]1 [UMP], the “hUCK Km fold greater than PfUCK” value (hUCK [4]) is listed as 2.3 fold, the Km (hUCK [5]) is listed as 45 ± 10 µM and the “fold higher Km than CMP, PfUCK” value (PfUCK) is listed as 3.9 fold.

With N#CCC(=O)c1cccc(F)c1 [Compound C38] the Ki [1] was 1.66 ± 0.27 µM, the IC50 (P. falciparum 3D7; [9]) was > 310 µM and the IC50 (P. falciparum 3D7; [10]) was 339 ± 26.4 µM. For the same molecule, the “Ki—hUCK” value [3, 12] was “little or no inhibition of hUCK; also recorded: No inhibition at 0.5 mM”.

For N#CCC(=O)c1cccc(Cl)c1Cl [Compound C64], the “Ki—PfUCK” value [1] was “No inhibition at 1 mM”.

For N#CCC(=O)c1cccc([N+](=O)[O-])c1 [Compound C80], the “Ki—PfUCK” value [1] was “No inhibition at 1 mM”.

For N#CCC(=O)c1cccc(C(F)(F)F)c1 [Compound C69], the “Ki—PfUCK” value [1] was “No inhibition at 1 mM”.

With N#CCC(=O)c1cccc(Br)c1 [Compound C37] the “Ki—PfUCK” value [1] was “no inhibition at 1 mM”.

In the case of CMP, the Km (hUCK [5]) is given as 20 ± 5 µM.

With N#CCC(=O)c1ccc(Cl)cc1 [Compound C10] the “Ki—PfUCK” value [1] was “No inhibition at 1 mM”.

For COC(=O)c1ccc(C(=O)CC#N)cc1 [Compound C9], the “Ki—PfUCK” value [1] was “insoluble”.

With N#CCC(=O)c1ccc(Cl)c(Cl)c1 [Compound C12] the Selectivity index ([2]; Table 4) was >89, the Ki [1] was 11.3 ± 2.22 µM and the “IC50 - P. falciparum (3D7), µM” value (P. falciparum 3D7; [10]) was “no inhibition at 0.5 mM”. The “Ki—hUCK” value [3, 12] was “No inhibition at 1 mM”.

In the case of C=CC(=O)NCc1cc(=O)n2ccccc2n1 [Compound C43], the Selectivity index ([2]; Table 3) is reported as 1.09, the Ki [1] is reported as 4.15 ± 0.26 µM and the IC50 (P. falciparum 3D7; [11]) is reported as > 1000 µM. For the same molecule, the Ki [3] was 4.55 ± 0.52 µM and the “Ki—hUCK” value [3, 13] was “inhibited hUCK activity”.

For N#CCC(=O)c1ccccc1 [Compound C11], the “Ki—PfUCK” value [1] was “No inhibition at 1 mM”.

In the case of O=C(CCl)NCc1cc(=O)n2ccccc2n1 [Compound C21], the Selectivity index ([2]; Table 3) is reported as 0.22, the Ki [1] is reported as 13.7 ± 3.18 µM and the IC50 (P. falciparum 3D7; [11]) is reported as 15.6 ± 1.13 µM. The Ki [3] was 2.98 ± 0.5 µM and the “Ki—hUCK” value [3, 13] was “inhibited hUCK activity”.

In the case of N#CCC(=O)c1cccc(Cl)c1 [Compound C7], the Selectivity index ([2]; Table 4) is reported as >235, the Ki [1] is reported as 4.26 ± 0.55 µM and the IC50 (P. falciparum 3D7; [9]) is reported as > 310 µM. For the same molecule, the IC50 (P. falciparum 3D7; [10]) was 380 ± 50.1 µM and the “Ki—hUCK” value [3, 12] was “little or no inhibition of hUCK; also recorded: No inhibition at 1 mM”.

Molecule N#CCC(=O)c1cncc(Br)c1 [Compound C67] has a Ki [1] of 4.38 ± 1.45 µM and an IC50 (P. falciparum 3D7; [9]) of 531 ± 61.2 µM.

For COc1ccc(C(=O)CC#N)cc1 [Compound C8], the “Ki—PfUCK” value [1] was “no inhibition at 1 mM”.

For N#CCC(=O)c1ccc(CN2CCOCC2)cc1 [Compound C77], the “Ki—PfUCK” value [1] was “No inhibition at 1 mM”.

For Nc1ccn([C@H]2C[C@H](O)[C@@H](COP(=O)(O)O)O2)c(=O)n1 [dCMP], the Km (hUCK [5]) is listed as 900 ± 100 µM.

B1: PfUCK (Plasmodium falciparum 3D7) (protein)
chain: T3 sequence (Q8I231 24-371)
With B1 the Km [6] was 110 ± 14 µM and the Km [7] was 428 ± 11 µM.

B2: hUCK (Homo sapiens) (protein)
chain: T1 sequence (P30085 1-228 isoform P30085-3)
Molecule B2 has a Km [8] of 47.7 ± 3.2 µM.
